Measurements reported in EPA's aquatic toxicity sets.

Test system: Tetrahymena pyriformis
Test: 48 h IGC50 (-log10 mol/L); higher = more toxic

Compound | 48 h IGC50 (-log10 mol/L)
CCCCCCOc1ccc(N)cc1 | 4.38
C#CCSc1ccccc1 | 3.54
CC(=O)OCCCCBr | 3.39
CCCCCCCCCCN | 5.06
CCCCCC1CCC(=O)O1 (centres undefined) | 3.01
CCc1cccc(CC)c1N | 3.31
CC(=O)c1cc(C)ccc1O | 3.31
COc1ccc(C=O)cc1O | 2.86
CCCC/C=C/CO | 3.04
NC(=O)c1ccc([N+](=O)[O-])cc1 | 3.18
Oc1ccc(-c2ccc(Br)cc2)cc1 | 5.31
CCC(=O)c1ccccc1 | 2.93
NC(=O)c1ccco1 | 1.56
CC(=O)C(C)=O | 2.77
CCN(C)C | 2.09
O=C(c1ccccc1)c1ccccc1 | 3.87
Fc1cccc2ccccc12 | 3.39
CC(=O)OCCCCCCl | 2.87
O=[N+]([O-])c1ccc(CCl)cc1 | 4.18
CC(=O)CCC(C)=O | 1.6
O=C(O)CCCCCC(=O)O | 2.42
O=C(O)CCCCCl | 2.71
CCN(CC)C(C)=O | 1.46
O=C(c1ccccc1)c1ccc(Br)cc1 | 4.26

Compound | 48 h IGC50 (-log10 mol/L)
Cc1ccc(Br)s1 | 3.65
O=[N+]([O-])c1c(Cl)cc(Cl)cc1Cl | 4.43
CCCCOc1ccc(C=O)cc1 | 3.72
OC1CCCCC1 | 2.23
NCc1ccccc1 | 2.76
OCC(O)CBr (centres undefined) | 1.79
C=C(C)C#N | 1.35
CCc1cccc2ccccc12 | 3.89
Oc1ccc(O)c(-c2ccccc2)c1 | 5.01
CCCC(N)CO (centres undefined) | 2.33
O=Cc1ccc(-c2ccccc2)cc1 | 4.12
CCC(=O)CC | 1.54
CC(=O)c1ccc(C)[nH]1 | 2.17
CCC(C)OC(C)=O (centres undefined) | 2.32
CC(C)(N)CO | 1.07
CC(O)(Cc1ccccc1)c1ccccc1 (centres undefined) | 3.8
CCCCCBr | 3.48
CCCCS(=O)(=O)CCCC | 2.74
O=C(/C=C/c1ccccc1)N=C=S | 3.29
O=C/C=C/c1ccco1 | 3.37
COC(=O)c1ccc(C(C)(C)C)cc1 | 3.92
COC(=O)c1ccc(C#N)cc1 | 2.95
O=[N+]([O-])c1c(Cl)ncnc1Cl | 5.12
CC(C)c1ccccc1N | 3.12

Compound | 48 h IGC50 (-log10 mol/L)
CCS(=O)(=O)CC | 1.16
CCCCCCCCC=O | 3.81
Cc1ccc2ccccc2n1 | 3.47
CC(=O)c1ccc(O)cc1C | 3.19
N#CCc1ccc(Br)cc1 | 3.6
CC1=CCCC1=O | 2.17
CCCCC(N)CO (centres undefined) | 2.42
COC(=O)c1ccc(Br)cc1 | 3.6
C/C=C/c1ccc(O)c(OC)c1 | 3.75
Cc1nccnc1C | 2.13
O=Cc1cc(Cl)cc(Cl)c1Cl | 4.72
CCOC(=O)C(C)C(=O)OCC | 2.49
O=C(O)CCCCCBr | 3.03
Nc1cc(Cl)c(Cl)cc1[N+](=O)[O-] | 4.66
CCCC(=O)OC | 1.75
CC(=O)CCc1ccc(O)cc1 | 2.5
C=C(C)C(=O)OC | 1.78
c1csc(-c2cccs2)c1 | 4.04
CCCCCC(N)=O | 2.09
C=CCBr | 3.57
Cc1ccnc(Cl)c1[N+](=O)[O-] | 3.29
Nc1c(Cl)cc([N+](=O)[O-])cc1[N+](=O)[O-] | 4.12
CCCCCCCCC(=O)OC | 4.04
C/C=C/C(=O)OC(C)CC (centres undefined) | 2.58

Compound | 48 h IGC50 (-log10 mol/L)
Cc1cc([N+](=O)[O-])ccc1Br | 4.16
CC(=O)OC(C)C | 1.41
CCOC(=O)C(Br)(Br)C(=O)OCC | 5.14
O=C1C=CCC1 | 3.64
CCC(=O)c1ccc(O)cc1 | 3.12
C#Cc1ccccc1 | 2.86
CCCCCOc1ccc(O)cc1 | 4.36
O=[N+]([O-])c1cc(Cl)ccc1Cl | 4.13
OCc1cccc(Br)c1 | 3.37
c1cncnc1 | 1.25
C#CC(O)CCCC (centres undefined) | 2.73
OCc1cccc(Cl)c1 | 3.15
Cc1cccc(C)c1N=C=S | 4.5
CCCCCC(=O)CC(C)=O | 3.51
C=CC(=O)OCCCCCCC | 4.09
CCCC#CCCO | 2.68
O=C(NO)c1ccccc1O | 3.38
O=C(c1ccccc1O)c1ccccc1O | 4.16
C=CC(=O)OC | 3.55
CCCCC/C=C/C(C)=O | 3.98
CCCCOc1ccc(O)cc1 | 3.7
O=C(O)CCCCCCCBr | 4.32
CC(C)(C)C(N)=O | 1.52
CC(C)(C)c1ccc(O)cc1 | 3.91

Compound | 48 h IGC50 (-log10 mol/L)
O=[N+]([O-])c1cc(Br)cc(F)c1O | 4.62
NC(=O)COc1ccccc1 | 2.27
C=CC(C)O (centres undefined) | 1.95
Cc1ccc(Cl)c(N)c1Cl | 3.69
COc1cccc(C=O)c1O | 3.38
Cc1ccc(Br)cc1 | 3.47
O=[N+]([O-])c1ccc(Br)s1 | 4.41
CN(C)c1ccc(C=O)cc1 | 3.23
N#C/C=C/c1ccco1 | 2.69
CCCCOC(=O)CC | 3.17
Cc1ccc(N)cc1C | 2.84
c1ccc2c(c1)ccc1cccnc12 | 4.31
COc1cc(Cl)cc(Cl)c1 | 3.93
CCCCCCCC(O)CCCCC (centres undefined) | 5.24
NNC(=O)CCCCC(=O)NN | 1.63
Cc1cc(O)c([N+](=O)[O-])cc1Cl | 4.63
CCCCCCCCC(O)CCC (centres undefined) | 4.65
O=Cc1cc(Br)c(O)c(Br)c1 | 3.89
CCCI | 2.61
O=[N+]([O-])c1cc(Cl)c(Cl)c(Cl)c1 | 4.55
BrCCCc1ccccc1 | 3.69
OCc1ccc(-c2ccccc2)cc1 | 3.92
Cc1ccc(O)c([N+](=O)[O-])n1 | 3.39
